Data reported in patent publication US20040171688A1, “Carboxylic acids and derivatives thereof and pharmaceutical compositions containing them” (priority 1997, published 2004).

Biological target: T1, HNF-4α (Rattus norvegicus, UniProt P22449)
T1 sequence (P22449 1-464 isoform P22449-2): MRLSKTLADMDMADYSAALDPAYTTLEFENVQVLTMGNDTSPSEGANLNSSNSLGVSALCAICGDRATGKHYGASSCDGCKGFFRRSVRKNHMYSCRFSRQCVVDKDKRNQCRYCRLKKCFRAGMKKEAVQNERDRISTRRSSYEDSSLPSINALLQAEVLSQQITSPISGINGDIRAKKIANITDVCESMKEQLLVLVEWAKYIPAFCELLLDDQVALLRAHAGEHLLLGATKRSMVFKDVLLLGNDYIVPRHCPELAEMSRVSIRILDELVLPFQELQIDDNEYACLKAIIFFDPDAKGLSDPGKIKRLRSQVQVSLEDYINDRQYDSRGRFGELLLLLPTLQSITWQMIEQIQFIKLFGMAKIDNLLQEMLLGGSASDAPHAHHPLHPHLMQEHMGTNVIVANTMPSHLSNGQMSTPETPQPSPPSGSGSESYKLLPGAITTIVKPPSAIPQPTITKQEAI
Assay: In vitro transcription assay induced by His-HNF-4α with HeLa nuclear extract
Assay type: biochemical
Set-up: The full length HNF-4α1 cDNA cloned into 6His-pET11d vector was expressed in E.coli BL21 (DE3)plysS; 6His; made in house; host or cells: E. coli BL21 (DE3)plysS
Conditions: for HNF-4α transcriptional activity, agonist/antagonist character (summary): summary statement of Example 4
Procedure: a. Representative experiments showing in vitro transcription of the test template in the presence of increasing concentrations of His-HNF-4I and in the absence (lanes 1-3, 7-9) or presence of 10 μM of added palmitoyl(16:0)-CoA (lanes 4-6) or stearoyl(18:0)-CoA (lanes 10,11) as indicated. Correctly initiated transcripts of the test and control templates are denoted by (→) and ? , respectively.
b. HNF-4I-induced in vitro transcription in the absence (empty bars) or presence of 10 μM each of added palmitoyl(16:0)-CoA (filled bars) or stearoyl(18:0)-CoA (hatched bars). Fold transcription indicates the ratio of specific transcript produced by the test template over transcript from the control template normalized to the ratio observed without HNF-4a. The figure summarizes 5 independent experiments for each acyl-CoA. *-Significant as compared with the respective value in the absence of added ligand.
Reaction mixture contained 20 mM Hepes-KOH (pH 7.9), 5 mM MgCl2, 60 mM KCl, 8% glycerol, 2 mM DTT, 1 mM 3′-O-methyl-GTP, 10 units of T1RNase, 20 units of RNasin, 0.5 μg sonicated salmon sperm DNA and His-HNF-4α and test ligand as indicated. The mixture was preincubated for 30 min at 22° C. followed by adding 10 ng of pAdML200 control template consisting of the adenovirus major-late promoter (−400/+10) linked to a 200 bp G-less cassette and 200 ng of the test template consisting of three C3P copies of the apo CIII promoter sequence (−87/−66) upstream to a synthetic ovalbumin TATA box promoter in front of a 377 bp-G-less cassette. The mixture was further preincubated for 10 min at 22° C. followed by adding 40 μg of HeLa nuclear extract with additional preincubation for 30 min at 30° C. 0.5-mM ATP, 0.5 mM CTP, 25 μM UTP, and 10 μCi of [α-^32P]UTP (s.a. […], Amersham) were then added and the complete reaction mixture was incubated for 45 min at 30° C. in a final volume of 25 μl. The reaction was terminated by adding 175 μl of stop mix (0.1 M sodium acetate (pH 5.2), 10 mM EDTA, 0.1% SDS, 200 μg/ml tRNA) followed by phenol extraction and ethanol precipitation. RNA was resuspended in sample buffer containing 80% formamide and 10 mM Tris-HCl (pH 7.4) and separated on 5% polyacrylamide gel containing 7 M urea in TBE. Correctly initiated transcripts were quantitated by PhosphorImager analysis. The test DNA template was constructed by inserting into pC2AT19 plasmid a PCR-amplified oligonucleotide prepared by using the (C3P)3-TK-CAT plasmid as template and consisting of three copies of the C3P element of the Apo CIII promoter sequence (−87/−66) having an ECoRI and SSTI sites at the 5′ and 3′ ends, respectively. The resultant plasmid was cleaved with sphI and sacI and ligated to a synthetic oligonucleotide (5′-CGAGGTCCAC-[…]-3′) containing sequences of the HSV thymidine kinase promoter (−41/−29) and of the chicken ovalbumin promoter (−33/−21).
The effect of agonistic and antagonistic HNF-4α-ligands was further evaluated by analyzing the in vitro transcription rate, catalyzed by added HeLa nuclear extract and induced by recombinant HNF-4α, of a test template consisting of a 377 bp G-less cassette promoted by sequences of the HSV thymidine kinase and chicken ovalbumin promoters and enhanced by three C3P copies of the apo Clil gene promoter. Transcriptional activation by HNF-4α was evaluated in the presence and in the absence of added representative long chain fatty acyl-CoAs. […]

effect on HNF-4α induced in vitro transcription (10 μM added acyl-CoA (FIG. 3)) | HNF-4α transcriptional activity, agonist/antagonist character (summary) | SMILES
inhibited | true antagonist | CCCCCCCCCCCCCCCCCC(=O)SCCNC(=O)CCNC(=O)[C@H](O)C(C)(C)COP(=O)(O)OP(=O)(O)OC[C@H]1O[C@@H](n2cnc3c(N)ncnc32)[C@H](O)[C@@H]1OP(=O)(O)O [Stearoyl(18:0)-CoA]
 | activators | CCCCCCCCCCCCCC(=O)SCCNC(=O)CCNC(=O)[C@H](O)C(C)(C)COP(=O)(O)OP(=O)(O)OC[C@H]1O[C@@H](n2cnc3c(N)ncnc32)[C@H](O)[C@@H]1OP(=O)(O)O [myristoyl(14:0)-CoA, reference compound]
